Experiment [1] concerns the target T1, DPDE4 (plasmid pADH72C) (Homo sapiens, UniProt Q07343). As to the kind of experiment: biochemical.
In experiment [2] the test system is human dunce-like PDEs (three human clones). As to the kind of experiment: Inhibition and kinetics of the human dunce-like PDEs. Particulars: for IC50: range over the human clones, read-out: IC50s for the human clones; for IC50s fold higher than for their specific PDE classes: compared with literature values for the inhibitors' own PDE classes. The format is biochemical.

Experiment [3] has as its target T2, dnc (plasmid pADDROSC, full-length) (Drosophila melanogaster, UniProt P12252).
T2 sequence (P12252 1-701 isoform P12252-3): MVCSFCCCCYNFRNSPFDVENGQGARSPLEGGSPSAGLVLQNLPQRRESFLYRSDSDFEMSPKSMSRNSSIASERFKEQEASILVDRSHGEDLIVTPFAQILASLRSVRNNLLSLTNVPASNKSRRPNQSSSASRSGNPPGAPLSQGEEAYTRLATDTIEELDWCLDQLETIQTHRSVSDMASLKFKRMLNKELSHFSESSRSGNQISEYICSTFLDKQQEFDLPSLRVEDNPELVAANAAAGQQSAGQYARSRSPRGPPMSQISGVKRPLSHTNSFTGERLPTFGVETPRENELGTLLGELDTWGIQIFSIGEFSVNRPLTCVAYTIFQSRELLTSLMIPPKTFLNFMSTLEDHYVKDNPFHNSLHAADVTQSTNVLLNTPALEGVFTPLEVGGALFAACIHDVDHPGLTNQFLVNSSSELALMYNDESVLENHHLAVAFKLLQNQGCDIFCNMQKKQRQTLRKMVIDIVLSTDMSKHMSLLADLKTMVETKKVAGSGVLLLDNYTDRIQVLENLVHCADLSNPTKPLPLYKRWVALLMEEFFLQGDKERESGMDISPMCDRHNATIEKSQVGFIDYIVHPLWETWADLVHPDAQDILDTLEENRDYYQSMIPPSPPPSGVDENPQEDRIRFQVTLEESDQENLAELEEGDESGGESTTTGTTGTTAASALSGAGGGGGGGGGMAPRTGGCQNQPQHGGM
Kind of experiment: biochemical.

Experiment [4] deals with DPDE3 (plasmid pADH43, cDNA truncated at 5' end). Conditions: 1 μM 3H cAMP, SD in parentheses.
Experiment [5] deals with T3, rat DPD phosphodiesterase (Rattus norvegicus, UniProt P14646).
T3 construct: A large open reading frame of 562 codons was found; The first ATG appears at codon 46; made in house; host or cells: S. cerevisiae 10DAB (pde1-, pde2-), crude extract, vector pADNS
T3 sequence (P14646 220-736): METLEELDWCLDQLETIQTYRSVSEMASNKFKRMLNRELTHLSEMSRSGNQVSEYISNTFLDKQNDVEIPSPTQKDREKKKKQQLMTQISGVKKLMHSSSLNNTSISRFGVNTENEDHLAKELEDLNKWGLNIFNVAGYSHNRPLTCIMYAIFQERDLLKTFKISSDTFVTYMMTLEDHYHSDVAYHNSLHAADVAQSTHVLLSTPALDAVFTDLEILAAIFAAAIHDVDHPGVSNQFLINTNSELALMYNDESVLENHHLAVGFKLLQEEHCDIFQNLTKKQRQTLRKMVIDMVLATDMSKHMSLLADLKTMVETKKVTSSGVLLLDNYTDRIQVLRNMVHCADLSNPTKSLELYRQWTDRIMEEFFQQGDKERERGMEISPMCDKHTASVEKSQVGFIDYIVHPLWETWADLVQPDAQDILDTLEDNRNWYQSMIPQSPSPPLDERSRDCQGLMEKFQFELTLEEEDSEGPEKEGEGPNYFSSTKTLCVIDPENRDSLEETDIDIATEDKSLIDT
Kind of experiment: Inhibition of phosphodiesterases by chemicals, cell free extracts of 10DAB yeast. It counts as biochemical.

Experiment [6] has as its system DPDE4 (plasmid pADH72, cDNA truncated at 5' end). Conditions: 1 μM 3H cAMP, SD in parentheses.
Experiment [7] relates to DPDE2 (plasmid pADH46R, cDNA truncated at 5' end). Particulars: 1 μM 3H cAMP, SD in parentheses.
Experiment [8] has as its system dnc (plasmid pADDROSF, cDNA truncated at 5' end). As to the kind of experiment: Hydrolysis of 3H cAMP by yeast extracts (Dunce-like PDE clones). Conditions: 1 μM 3H cAMP, SD in parentheses. The format is biochemical, Drosophila.
The target of a further experiment is yeast PDE2 (Saccharomyces cerevisiae, UniProt P06776). As to the kind of experiment: Inhibition of phosphodiesterases by chemicals, cell free extracts of 10DAB yeast.
Experiment [9] has as its system cAMP phosphodiesterases encoded by cDNAs of pTM3, pTM72, pJC44x and pRATDPD. Kind of experiment: Biochemical analysis of cell lysates.
Experiment [10] has as its system 10DAB cells expressing the cDNA of pRATDPD. As to the kind of experiment: Heat shock sensitivity of yeast expressing rat DPD. The format is cell-based, S. cerevisiae. Particulars: 100 μM for 40 minutes, then 50° C. for 30 minutes. Here is the method: 10DAB cells, which are phosphodiesterase deficient, are sensitive to heat shock. As already discussed, when these cells acquire the capacity to express the cDNA of pRATDPD, they become resistant to heat shock. 10DAB cells expressing the cDNA of pRATDPD were maintained in rich medium (YPD) for three days at stationary phase. […] Control cultures were not treated with any inhibitor. These cultures were then heat shocked in glass tubes at 50° C. […] for 30 minutes. One microliter of each culture was plated.

Experiment [11] relates to Drosophila dnc encoded PDEs. As to the kind of experiment: Inhibition and kinetics of dnc encoded PDEs. The format is biochemical. Conditions: dnc gene product.
Experiment [12] concerns yeast strain 10DAB transformed with pAD72 (human family IV phosphodiesterase). Kind of experiment: Whole cell screen: heat treatment viability of transformed yeast. Particulars: 2 h at 30° C. then 50° C. for 30 min; for effect on viable cells of the culture after heat treatment (in words): concentrations up to 100 μM.
The target of experiment [13] is pJC44x human cyclic AMP phosphodiesterase. As to the kind of experiment: Phosphodiesterase activity of 10DAB yeast extract expressing human cDNA (kinetics, inhibitor sensitivity). Particulars: read-out: EC50 (inhibitor concentration at 50% enzyme velocity); 1.0 μM cAMP.
The target of experiment [14] is pL22 Met (pTM22-like) human cyclic AMP phosphodiesterase (Homo sapiens, UniProt Q13946). The experiment is described as above.
The subject of experiment [15] is yeast containing RAS2^va119 expressing the rat DPD gene. As to the kind of experiment: Heat shock phenotype reversal screen. The format is cell-based. Particulars: resistant cells incubated in agent. From the text:
The second type of pharmacological screen is applicable even when the mammalian gene encodes a protein of undetermined function, and, thus, cannot be assayed by a biochemical activity. In this method, agents to be tested are applied or introduced directly to the genetically altered microbial host expressing the mammalian protein. Agents capable of inhibiting the mammalian gene or gene product are identified by their ability to reverse the phenotype originally corrected by expression of the mammalian protein in the altered host.
This procedure has been used for mammalian cDNAs encoding cyclic nucleotide phosphodiesterases and a yeast containing RAS2^va119 as the host strain. When the rat DPD gene is introduced into the heat shock sensitive host and expressed, the host strain becomes heat shock resistant. […] This same approach can be applied to assess other genes.

Experiment [16] has as its target T1, DPDE4 (plasmid pADH72C). Particulars: 1 μM 3H cAMP, SD in parentheses.
Experiment [17] deals with T4, pRATDPD gene product (rat DPD cAMP phosphodiesterase) (Rattus norvegicus, UniProt P14646).
T4 sequence (P14646 220-736): T3 sequence (P14646 220-736)
Particulars: cGMP 100 fold over substrate concentration (5 μM cAMP, cGMP up to 500 μM).

Entries after “also recorded” stand apart in the source; their conditions may differ. Where two headings read alike, the source gives them in different places.

T1 sequence (Q07343 whole entry): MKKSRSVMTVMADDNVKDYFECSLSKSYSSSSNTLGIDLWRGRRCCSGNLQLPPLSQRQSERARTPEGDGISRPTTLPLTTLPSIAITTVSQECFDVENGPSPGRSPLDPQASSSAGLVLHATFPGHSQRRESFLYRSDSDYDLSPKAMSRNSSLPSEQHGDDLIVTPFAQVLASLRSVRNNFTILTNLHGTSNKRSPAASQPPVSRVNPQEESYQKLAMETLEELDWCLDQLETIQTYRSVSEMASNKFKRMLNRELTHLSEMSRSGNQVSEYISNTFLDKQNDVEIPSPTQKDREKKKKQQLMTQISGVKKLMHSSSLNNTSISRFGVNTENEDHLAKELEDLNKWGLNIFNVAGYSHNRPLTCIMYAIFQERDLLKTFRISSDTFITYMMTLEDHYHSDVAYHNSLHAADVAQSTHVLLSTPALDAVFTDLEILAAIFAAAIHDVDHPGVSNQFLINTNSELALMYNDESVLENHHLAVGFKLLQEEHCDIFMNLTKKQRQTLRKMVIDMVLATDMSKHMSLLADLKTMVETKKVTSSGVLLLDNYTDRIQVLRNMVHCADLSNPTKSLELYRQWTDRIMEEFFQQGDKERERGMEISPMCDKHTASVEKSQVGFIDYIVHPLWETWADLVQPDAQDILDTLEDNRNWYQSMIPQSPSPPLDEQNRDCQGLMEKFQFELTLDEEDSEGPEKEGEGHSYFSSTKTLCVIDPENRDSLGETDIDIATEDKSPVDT
Chain of pL22 Met (pTM22-like) human cyclic AMP phosphodiesterase (Q13946 with tags, fused parts or gaps): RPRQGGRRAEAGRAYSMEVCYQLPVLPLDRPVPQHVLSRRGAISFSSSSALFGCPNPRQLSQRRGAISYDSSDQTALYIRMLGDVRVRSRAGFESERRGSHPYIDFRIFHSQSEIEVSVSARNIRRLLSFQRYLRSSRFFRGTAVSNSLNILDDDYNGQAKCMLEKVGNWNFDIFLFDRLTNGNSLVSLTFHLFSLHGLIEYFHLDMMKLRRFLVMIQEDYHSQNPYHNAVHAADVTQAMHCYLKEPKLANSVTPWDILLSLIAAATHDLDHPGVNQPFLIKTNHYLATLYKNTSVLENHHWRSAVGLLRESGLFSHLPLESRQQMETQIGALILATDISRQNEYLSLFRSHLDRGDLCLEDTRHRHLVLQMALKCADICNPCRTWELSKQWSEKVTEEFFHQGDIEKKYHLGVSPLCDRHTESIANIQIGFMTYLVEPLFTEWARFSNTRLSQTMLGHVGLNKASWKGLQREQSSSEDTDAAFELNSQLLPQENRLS
Chain of yeast PDE2 (P06776 whole entry): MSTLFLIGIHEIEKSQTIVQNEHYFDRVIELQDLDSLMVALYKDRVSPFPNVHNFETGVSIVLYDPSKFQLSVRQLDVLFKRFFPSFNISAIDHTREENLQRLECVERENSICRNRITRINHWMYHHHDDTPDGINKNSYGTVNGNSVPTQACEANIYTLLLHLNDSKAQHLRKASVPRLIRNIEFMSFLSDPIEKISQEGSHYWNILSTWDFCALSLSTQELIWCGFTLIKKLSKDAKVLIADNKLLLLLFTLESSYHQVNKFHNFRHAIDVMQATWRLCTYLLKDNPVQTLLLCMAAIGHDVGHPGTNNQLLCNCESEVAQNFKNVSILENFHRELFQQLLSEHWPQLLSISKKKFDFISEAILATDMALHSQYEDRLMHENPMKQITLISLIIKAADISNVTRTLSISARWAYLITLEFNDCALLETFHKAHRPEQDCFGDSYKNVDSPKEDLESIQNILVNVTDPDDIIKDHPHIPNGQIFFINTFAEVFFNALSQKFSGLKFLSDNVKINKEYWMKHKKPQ

As usually defined, the inhibition is the share of the control response that was lost under treatment. The low end stands for a weak effect, the high end for a strong effect. With `CC(C)Cn1c(=O)n(C)c(=O)c2[nH]cnc21` [IBMX], the IC50 was 11 µM on DPDE4 (plasmid pADH72C) [1]; 12 µM in experiment [3] (read-out: IC50); 10 µM in [4]; 15 µM in experiment [6]; 9.3 µM in experiment [7]; 11 µM in experiment [8]. Moreover, the “inhibition of the human dunce-like PDEs (in words)” value in experiment [2] (no detectable difference in IC50 between clones) was “inhibited”. Moreover, the results for the inhibition at 250 µM (in experiment [5]; against yeast PDE2) were 87% and 0%, respectively.
Turning to `COc1ccc(C2CNC(=O)C2)cc1OC1CCCC1` (centres unmarked) [Rolipram], the IC50 in experiment [2] is 0.2 to 0.5 µM; in experiment [3], > 740 µM; in [11] it was 1000 µM; in experiment [4], 0.18 µM; in [6], […]; in [7], 0.5 µM. Besides, the IC50 in experiment [8] was > 1000 µM. In addition, the “sensitivity of the cAMP phosphodiesterases to the agent (in words)” value in experiment [9] is on record as “sensitive”. Besides, in [10], the “sensitivity to heat shock (in words)” value was “much more sensitive to heat shock”. Moreover, the “cells remaining viable out of approximately 150,000 cells” value in [12] (100 μM) is “less than 10 cells”. The “effect on viable cells of the culture after heat treatment (in words)” value in experiment [12] is listed as “reduced the number of viable cells”. The EC50 is […] in experiment [13] and > 300 µM in experiment [14]. Further, the “inhibition of rat DPD enzymatic activity (in words)” value in [5] was “readily inhibited; also recorded: most effective inhibitors”. The “heat shock phenotype (in words)” value in [15] is given as “become heat shock sensitive again”.
Turning to `CCCOc1ccccc1-c1nc2nn[nH]c2c(=O)[nH]1` [Zaprinast], in [2], the “IC50s fold higher than for their specific PDE classes” value (shortened to “IC50s fold higher than”) lay within 10 to 1000 fold. Moreover, the IC50 in experiment [3] (read-out: IC50) was found to be 58 µM; in experiment [4], 88 µM; in experiment [6], 90 µM; in experiment [7] it was 120 µM; in experiment [8], 130 µM.
Turning to `COCc1nc2c([nH]1)c(=O)n(C)c(=O)n2CC(C)C` [8-Methoxy IBMX], the IC50 on DPDE4 (plasmid pADH72C) [16] was 190 µM; in experiment [3] (pADDR, 1 μM 3H cAMP, SD in parentheses, read-out: IC50) it was 170 µM; in [4] it was 160 µM; in [6] it was 220 µM; in experiment [7], 220 µM; in [8], 120 µM. The “IC50s fold higher than” value in experiment [2] lay within 10 to 1000 fold.
Take `CCCCOc1cc(CC2CNC(=O)N2)ccc1OC` (centres unmarked) [RO 20-1724]: the IC50 in experiment [2] lay within 1 to 10 µM. The IC50 in [11] turned out to be 1000 µM. Further, the EC50 in experiment [13] came out at 3 µM. Further, in experiment [5], the inhibition at 0.1 µM worked out at 35%, 1 µM produced 52% inhibition, the inhibition at 10 µM was 79% and the inhibition at 100 µM came out at 92%. The “inhibition of rat DPD enzymatic activity (in words)” value in experiment [5] (listed as R020 1724) is listed as “readily inhibited; also recorded: most effective inhibitors”. In addition, the EC50 in [14] is > 300 µM. The inhibition at 100 µM against yeast PDE2 was determined as 3%.
`Cc1[nH]c(=O)c(C#N)cc1-c1ccncc1` [Milrinone]: the IC50 was > 1000 µM in experiment [3] (read-out: IC50), 16 µM in [4], 59 µM in [7] and > 1000 µM in experiment [8]. In addition, the “effect on viable cells of the culture after heat treatment (in words)” value in [12] was “no observable effect”. For the same compound, the EC50 in [13] and in experiment [14] was 30 µM in each case.
For the compound `CN(C(=O)CCCOc1ccc2[nH]c(=O)ccc2c1)C1CCCCC1` [Cilostamide], the “IC50s fold higher than” value in [2] fell in the range of 10 to 1000 fold. Further, the IC50 in [3] (read-out: IC50) was > 1000 µM; in [4], 90 µM; in experiment [6], 55 µM; in experiment [7], 140 µM; in experiment [8], > 1000 µM.
`Cn1c(=O)c2[nH]cnc2n(C)c1=O` [Theophylline]: in [13], the EC50 worked out at 300 µM.
For the compound `Nc1nc2c(ncn2[C@@H]2O[C@@H]3COP(=O)(O)O[C@H]3[C@H]2O)c(=O)[nH]1` [cGMP], the IC50 (against DPDE4 (plasmid pADH72C) [1]; in [3] (read-out: IC50); in experiment [4]; in experiment [6]; in experiment [7]; in [8]) was > 1000 µM each time. Moreover, the EC50 in experiment [13] and in experiment [14] was > 300 µM each time. Moreover, the “inhibition of cAMP phosphodiesterase activity by cGMP” value in [17] is given as “did not inhibit”.
As for `CCCCn1c(=O)c2c(ncn2CC(C)=O)n(CCCC)c1=O` [Denbufylline], the IC50 in experiment [2] was 1 to 10 µM; in [3] (read-out: IC50), 3 µM; in experiment [11], 1 to 3 µM; in experiment [4], 0.1 µM; in experiment [6], 0.2 µM; in experiment [7], 0.22 µM. For the same compound, the IC50 in experiment [8] was found to be 1.5 µM.

Source of the values: US6069240A, “Cloning by complementation and related processes” (priority 1998, dated 2000).
